The results in this text go back to patent US20240376073A1 (Hoffmann-La Roche Inc., priority 2021, published 2024).

Where a name gives a salt, the structure may show the parent alone.

One test has as its system Acinetobacter baumannii ATCC17961. Kind of test: Antimicrobial susceptibility testing: 90% growth inhibitory concentration (IC90) determination. It counts as cell-based. The note with it: Acinetobacter baumannii ATCC17961; Iso-Sensitest broth; growth by OD 600 nm over 16 h; 35±2° C.; read-out: ATCC 17961 IC90. A digest of the protocol: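 Twofold serial dilutions (e.g. 50 to 0.097 μM final) in Iso-Sensitest broth, inoculated at ~5×10^(5) CFU/ml, incubated at 35±2° C. OD600 read every 20 min over 16 h; IC90 derived from growth inhibition during logarithmic growth.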
The term IC90 denotes the concentration needed for an effect of 90%. For the compound `Cn1c(-c2ccc(OCC#N)c(F)c2F)cnc1C(=O)Nc1ccc(C(=O)N2CCC(C(=O)N[C@H]3CC[N+](C)(C)C3)CC2)c(Cl)c1` [Example B24, (S)-3-(1-(2-chloro-4-(5-(4-(cyanomethoxy)-2,3-difluorophenyl)-1-methyl-1H-imidazole-2-carboxamido)benzoyl)piperidine-4-carboxamido)-1,1-dimethylpyrrolidin-1-ium formate], the IC90 is 120 nM. On the same count and under the same terms, for `COc1ccc(-c2cnc(C(=O)Nc3ccc(C(=O)N4CCN(C(=O)[C@@H]5C[C@@H](O)C[N+]5(C)C)CC4)c(Cl)c3)n2C)c(F)c1F` [Example B25, (2S,4R)-2-(4-(2-chloro-4-(5-(2,3-difluoro-4-methoxyphenyl)-1-methyl-1H-imidazole-2-carboxamido)benzoyl)piperazine-1-carbonyl)-4-hydroxy-1,1-dimethylpyrrolidin-1-ium formate] the value was 120 nM; for `Cc1cc(NC(=O)c2ncc(-c3ccc(OCC#N)c(F)c3F)n2C)ccc1C(=O)N1CCN(C(=O)C2(O)CC[N+](C)(C)CC2)CC1` [Example B26, 4-(4-(4-(5-(4-(cyanomethoxy)-2,3-difluorophenyl)-1-methyl-1H-imidazole-2-carboxamido)-2-methylbenzoyl)piperazine-1-carbonyl)-4-hydroxy-1,1-dimethylpiperidin-1-ium formate], 540 nM; for `Cn1c(-c2ccc(OCC#N)c(F)c2F)cnc1C(=O)Nc1ccc(C(=O)N2CCN(C(=O)[C@@H]3C[C@](C)(O)C[N+]3(C)C)CC2)c(Cl)c1` [Example B27, (2S,4S)-2-(4-(2-chloro-4-(5-(4-(cyanomethoxy)-2,3-difluorophenyl)-1-methyl-1H-imidazole-2-carboxamido)benzoyl)piperazine-1-carbonyl)-4-hydroxy-1,1,4-trimethylpyrrolidin-1-ium formate], 170 nM. `Cc1cc(NC(=O)c2ncc(-c3ccc(OCC#N)c(F)c3F)n2C)ccc1C(=O)N1CCN(C(=O)N[C@@H]2C[N+](C)(C)C[C@H]2O)CC1` [Example B28, (3R,4R)-3-(4-(4-(5-(4-(cyanomethoxy)-2,3-difluorophenyl)-1-methyl-1H-imidazole-2-carboxamido)-2-methylbenzoyl)piperazine-1-carboxamido)-4-hydroxy-1,1-dimethylpyrrolidin-1-ium formate]: the IC90 amounted to 220 nM. As to `Cc1cc(NC(=O)c2ncc(-c3ccc(OCC#N)c(F)c3F)n2C)ccc1C(=O)N1CCN(C(=O)N[C@H]2C[N+](C)(C)C[C@@H]2O)CC1` [Example B29, (3S,4S)-3-(4-(4-(5-(4-(cyanomethoxy)-2,3-difluorophenyl)-1-methyl-1H-imidazole-2-carboxamido)-2-methylbenzoyl)piperazine-1-carboxamido)-4-hydroxy-1,1-dimethylpyrrolidin-1-ium formate], the IC90 is 250 nM. `COc1ccc(-c2cnc(C(=O)Nc3ccc(C(=O)N4CCN(C(=O)[C@@H]5C[C@@](C)(O)C[N+]5(C)C)CC4)c(Cl)c3)n2C)c(F)c1F` [Example B30, (2S,4R)-2-(4-(2-chloro-4-(5-(2,3-difluoro-4-methoxyphenyl)-1-methyl-1H-imidazole-2-carboxamido)benzoyl)piperazine-1-carbonyl)-4-hydroxy-1,1,4-trimethylpyrrolidin-1-ium formate]: the IC90 stood at 110 nM. The same measure, in the same setting: under `Cn1c(-c2ccc(OCC#N)c(F)c2F)cnc1C(=O)Nc1ccc(C(=O)N2CCC(C(=O)N3CC([N+](C)(C)C)C3)CC2)c(Cl)c1` [Example B31, [1-[1-[2-chloro-4-[[5-[4-(cyanomethoxy)-2,3-difluoro-phenyl]-1-methyl-imidazole-2-carbonyl]amino]benzoyl]piperidine-4-carbonyl]azetidin-3-yl]-trimethyl-ammonium; formate] stands 250 nM. Take `COc1ccc(-c2cnc(C(=O)Nc3ccc(C(=O)NCc4cnn(CC(=O)N5CC[N+](C)(C)CC5)c4)c(Cl)c3)n2C)c(F)c1F` [Example B32, N-[3-chloro-4-[1-[2-(4,4-dimethylpiperazin-4-ium-1-yl)-2-oxo-ethyl]pyrazol-4-yl]methylcarbamoyl]phenyl]-5-(2,3-difluoro-4-methoxy-phenyl)-1-methyl-imidazole-2-carboxamide; formate]: the IC90 was determined as 200 nM. Same read-out and setting: for `COc1ccc(-c2cnc(C(=O)Nc3ccc(C(=O)N4CCN(C(=O)C5CC[N+](C)(C)CC5O)CC4)c(Cl)c3)n2C)c(F)c1F` (centres unmarked) [Example B33, N-[3-chloro-4-[4-(3-hydroxy-1,1-dimethyl-piperidin-1-ium-4-carbonyl)piperazine-1-carbonyl]phenyl]-5-(2,3-difluoro-4-methoxy-phenyl)-1-methyl-imidazole-2-carboxamide; formate] the value was 130 nM; for `COc1ccc(-c2cnc(C(=O)Nc3ccc(C(=O)N4CCN(C(=O)[C@@H]5COCC[N+]5(C)C)CC4)c(Cl)c3)n2C)c(F)c1F` [Example B35, N-[3-chloro-4-[4-[(3S)-4,4-dimethylmorpholin-4-ium-3-carbonyl]piperazine-1-carbonyl]phenyl]-5-(2,3-difluoro-4-methoxy-phenyl)-1-methyl-imidazole-2-carboxamide; iodide], 130 nM.

Still in this test, the particulars now being: Acinetobacter baumannii, ATCC17961, 16 h, read-out: ATCC 17961 IC90, Acinetobacter baumannii ATCC17961; Iso-Sensitest broth; growth by OD 600 nm over 16 h; 35±2° C.
With `COc1ccc(-c2cnc(C(=O)Nc3ccc(C(=O)N4CCN(C(=O)[C@@H]5C[C@H](O)C[N+]5(C)C)CC4)c(Cl)c3)n2C)c(F)c1F` [Example B34, N-[3-chloro-4-[4-[(2S,4S)-4-hydroxy-1,1-dimethyl-pyrrolidin-1-ium-2-carbonyl]piperazine-1-carbonyl]phenyl]-5-(2,3-difluoro-4-methoxy-phenyl)-1-methyl-imidazole-2-carboxamide; formate], the IC90 came to 140 nM. Same read-out and setting: under `COc1ccc(-c2cnc(C(=O)Nc3ccc(C(=O)N4CCN(C(=O)[C@@H]5[C@@H](O)CC[N+]5(C)C)CC4)c(Cl)c3)n2C)c(F)c1F` [Example B36, N-[3-chloro-4-[4-[(2S,3S)-3-hydroxy-1,1-dimethyl-pyrrolidin-1-ium-2-carbonyl]piperazine-1-carbonyl]phenyl]-5-(2,3-difluoro-4-methoxy-phenyl)-1-methyl-imidazole-2-carboxamide; formate] stands 220 nM. On the same count and under the same terms, for `COc1ccc(-c2cnc(C(=O)Nc3ccc(C(=O)N4CCN(C(=O)[C@@H]5C[C@H](O)CC[N+]5(C)C)CC4)c(Cl)c3)n2C)c(F)c1F` [Example B38, N-[3-chloro-4-[4-[(2S,4R)-4-hydroxy-1,1-dimethyl-piperidin-1-ium-2-carbonyl]piperazine-1-carbonyl]phenyl]-5-(2,3-difluoro-4-methoxy-phenyl)-1-methyl-imidazole-2-carboxamide; formate] the value was 180 nM; for `COc1ccc(-c2cnc(C(=O)Nc3ccc(C(=O)N4CCN(C(=O)NC5C[N+](C)(C)CC5O)CC4)c(Cl)c3)n2C)c(F)c1F` (centres unmarked) [Example B39, 4-[2-chloro-4-[[5-(2,3-difluoro-4-methoxy-phenyl)-1-methyl-imidazole-2-carbonyl]amino]benzoyl]-N-(4-hydroxy-1,1-dimethyl-pyrrolidin-1-ium-3-yl)piperazine-1-carboxamide; formate], 110 nM; for `COc1ccc(-c2cnc(C(=O)Nc3ccc(C(=O)N4CCN(C(=O)[C@@H]5C[C@@H](O)C[N+]5(C)C)CC4)c(Cl)c3)n2C)c(C(F)F)c1F` [Example B40, N-[3-chloro-4-[4-[(2S,4R)-4-hydroxy-1,1-dimethyl-pyrrolidin-1-ium-2-carbonyl]piperazine-1-carbonyl]phenyl]-5-[2-(difluoromethyl)-3-fluoro-4-methoxy-phenyl]-1-methyl-imidazole-2-carboxamide; formate], 260 nM. On the same count and under the same terms, for `Cn1c(-c2ccc(OC(F)F)c(F)c2F)cnc1C(=O)Nc1ccc(C(=O)N2CCN(C(=O)[C@@H]3C[C@@H](O)C[N+]3(C)C)CC2)c(Cl)c1` [Example B41, N-[3-chloro-4-[4-[(2S,4R)-4-hydroxy-1,1-dimethyl-pyrrolidin-1-ium-2-carbonyl]piperazine-1-carbonyl]phenyl]-5-[4-(difluoromethoxy)-2,3-difluoro-phenyl]-1-methyl-imidazole-2-carboxamide; formate] the value was 76 nM; for `COc1ccc(-c2cnc(C(=O)Nc3ccc(C(=O)N4CCN(C(=O)[C@@H]5C[C@@H](CO)C[N+]5(C)C)CC4)c(Cl)c3)n2C)c(F)c1F` [Example B42, N-[3-chloro-4-[4-[(2S,4R)-4-(hydroxymethyl)-1,1-dimethyl-pyrrolidin-1-ium-2-carbonyl]piperazine-1-carbonyl]phenyl]-5-(2,3-difluoro-4-methoxy-phenyl)-1-methyl-imidazole-2-carboxamide; formate], 140 nM; for `COc1ccc(-c2cnc(C(=O)Nc3ccc(C(=O)N4CCN(C(=O)[C@@H]5C[C@@H](O)C[N+]5(C)C)CC4)c(Cl)c3)n2C)c(Cl)c1F` [Example B43, 5-(2-chloro-3-fluoro-4-methoxy-phenyl)-N-[3-chloro-4-[4-[(2S,4R)-4-hydroxy-1,1-dimethyl-pyrrolidin-1-ium-2-carbonyl]piperazine-1-carbonyl]phenyl]-1-methyl-imidazole-2-carboxamide; formate], 120 nM. On to `COc1ccc(-c2cnc(C(=O)Nc3ccc(C(=O)N4CCN(C(=O)[C@@H]5[C@H](O)CC[N+]5(C)C)CC4)c(Cl)c3)n2C)c(F)c1F` [Example B44, N-[3-chloro-4-[4-[(2S,3R)-3-hydroxy-1,1-dimethyl-pyrrolidin-1-ium-2-carbonyl]piperazine-1-carbonyl]phenyl]-5-(2,3-difluoro-4-methoxy-phenyl)-1-methyl-imidazole-2-carboxamide; formate], for which the IC90 is 420 nM.
